In patent publication US20240279302A1, “OLFACTORY RECEPTOR EXPRESSING METHOD AND RESPONSE MEASUREMENT METHOD” (Kao Corporation, priority 2021, published 2024):

T1: OR2T11 (Homo sapiens, UniProt Q8NH01)
T1 sequence (Q8NH01 1-316): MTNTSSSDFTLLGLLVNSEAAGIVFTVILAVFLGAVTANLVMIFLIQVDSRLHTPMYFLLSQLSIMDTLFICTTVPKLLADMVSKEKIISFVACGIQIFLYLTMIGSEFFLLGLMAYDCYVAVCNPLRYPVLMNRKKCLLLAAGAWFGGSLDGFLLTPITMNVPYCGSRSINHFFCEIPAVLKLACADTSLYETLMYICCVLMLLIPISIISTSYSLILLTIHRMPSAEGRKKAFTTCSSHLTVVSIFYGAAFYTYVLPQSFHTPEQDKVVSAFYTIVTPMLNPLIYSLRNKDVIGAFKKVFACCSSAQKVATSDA


Test system: HEK293 cells expressing olfactory receptor
Experiment: Luciferase assay: signal to 100 μM sulfur compounds in the presence or absence of a copper ion
Assay type: cell-based, human
Settings: 100 μM odorant
Method: A reaction solution as to each consensus olfactory receptor prepared in Examples described above was prepared according to the composition shown in Table 4, left standing for 20 minutes in a clean bench, and then added to each well of a 96-well plate (Becton, Dickinson and Company). The original olfactory receptor was used as to OR4S2. Composition shown in Table 20 was used as to OR11H2 and OR4E2. Subsequently, 100 μL of HEK293 cells suspended in DMEM (Nacalai Tesque, Inc.) was inoculated at 2×10^5 cells/cm^2 to each well, and cultured for 24 hours in an incubator kept at 37° C. and 5% CO2. Cells expressing no olfactory receptor (Mock) were provided as a control.
[…] Under a copper ion addition condition, the test substance solution was adjusted to contain 30 μM copper(II) chloride (FUJIFILM Wako Pure Chemical Corp.) in addition to the odorant. The cells were cultured for 4 hours in a CO2 incubator and the luciferase gene was expressed sufficiently in the cells. Luciferase activity was measured using Dual-Glo™ luciferase assay system (Promega Corp.) in accordance with the operation manual of the product. A luminescence value derived from firefly luciferase induced by test substance stimulation in each well of the 96-well plate was divided by a luminescence value derived from Renilla luciferase to calculate a value (fluc/hRluc) as a signal, which was then used in analysis. The signal under each transfection condition was normalized with the signal value (fluc/hRluc) under an odorant stimulation-free condition defined as 0% and the signal value (fluc/hRluc) by stimulation with 10 μM forskolin defined as 100%, and used as a response (%) in analysis.

Molecule	responsiveness to methyl mercaptan, dimethyl sulfide, dimethyl disulfide, or dimethyl trisulfide in the presence of a copper ion in comparison with that in the absence
OR4S2: original human olfactory receptor OR4S2, SEQ ID NO: 18 (protein, listed as Homo sapiens) MEKINNVTEFIFWGLSQSPEIEKVCFVVFSFFYIIILLGNLLIMLTVCLSNLFKSPMYFFLSFLSFVDICYSSVTAPKMIVDLLAKDKTISYVGCMLQLFGVHFFGCTEIFILTVMAYDRYVAICKPLHYMTIMNRETCNKMLLGTWVGGFLHSIIQVALVVQLPFCGPNEIDHYFCDVHPVLKLACTETYIVGVVVTANSGTIALGSFVILLISYSIILVSLRKQSAEGRRKALSTCGSHIAMVVIFFGPCTFMYMRPDTTFSEDKMVAVFYTIITPMLNPLIYTLRNAEVKNAMKKLWGRNVFLEAKGK	improved in responsiveness
consensus OR2T4: consensus olfactory receptor polypeptide (protein, OR2T4 consensus-c, consensus olfactory receptor polypeptide) MANITWMANHTGWSDFILVGLFRQSKHPALLCVVIFVVFLMALSGNAVLILLIHSDAHLHTPMYFFISQLSLMDMMYISVTVPKMLLDQVMGVNKISAPECGMQMFLYVTLAGSEFFLLATMAYDRYVAICHPLRYPVLMNHRVCLFLASGCWFLGSVDGFTFTPITMTFPFCRSREIHHFFCEVPAVLKLSCSDTSLYEIFMYLCCVLMLLIPVTVISSSYLFILLTIHRMNSAEGRKKAFATCSSHMTVVILFYGAAIYTYMLPSSYHTPEKDMMVSVFYTILTPVLNPLIYSLRNKDVMGALKKMLNVGPVFQETMK	improved in responsiveness
consensus OR2T27: consensus olfactory receptor polypeptide (protein, OR2T27 consensus-c, consensus olfactory receptor polypeptide) MEWGNYSMYADFVLLGLFSNTRFPWLLFALILLVFVISIASNTVMIILIHIDSRLHTPMYFLLSQLSLMDILYISTIVPKMLVDQVMGQRAISFAGCTAQHFLYLTLAGAEFFLLGLMSYDRYVAICNPLRYPVLMSRKVCLLIVAAAWLGGSIDGFLLTPVTMQFPFCASREINHFFCEVPALLKLSCTDTSAYETAMYVCCIMMLLIPFSVISASYTRILITVYRMSEAEGRRKAVATCSSHMVVVSLFYGAAMYTYVLPHSYHTPEQDKAVSAFYTILTPMLNPLIYSLRNKDVTGALQKALGRCVSSGKVTTF	improved in responsiveness
consensus OR2T29: consensus olfactory receptor polypeptide (protein, OR2T29 consensus-c, consensus olfactory receptor polypeptide) MANITWMANHTGRSDFILVGLFSQSKHPALLCVVIFVVFLMALSGNAILILLIHSDAHLHTPMYFFISQLSLMDVMYISVTVPKMLMDQVMGVNKISAPECGMQMFLYLTLAGSEFFLLAAMAYDRYVAICHPLRYPVLMNHRVCLLLVSGCWFLGSVDGFMLTPITMTFPFCRSREIHHFFCEVPAVMKLSCSDTSLYETLMYLCCVLMLLIPVTVISSSYSFILLTIHRMNSAEGRKKAFATCSSHMTVVILFYGAAVYTYMLPSSYHTPEKDMMVSVFYTILTPVLNPLIYSLRNKDVTGALKKMLNVGSVFQETIK	improved in responsiveness
consensus OR2T5: consensus olfactory receptor polypeptide (protein, OR2T5 consensus-c, consensus olfactory receptor polypeptide) MANITWMANHTGKSDFILVGLFSQSKHPALLCVVIFVVFLMALSGNAILILLIHSDAHLHTPMYFFISQLSLMDVMYISVTVPKMLMDQVMGVNKISAPECGMQMFLYLTLAGSEFFLLAAMAYDRYVAICHPLRYPVLMNHRVCLLLASGCWFLGSVDGFMLTPITMTFPFCRSREIHHFFCEVPAVMKLSCSDTSLYETLMYLCCVLMLLIPVTVISSSYSFILLTIHRMNSAEGRKKAFATCSSHMTVVILFYGAAVYTYMLPSSYHTPEKDMMVSVFYTILTPVLNPLIYSLRNKDVTGALKKMLNVGSVFQETIK	improved in responsiveness
consensus OR2T1: consensus olfactory receptor polypeptide (protein, OR2T1 consensus-c, consensus olfactory receptor polypeptide) MEEYNTSSTDFTFMGLFNRKETSGLLFAIISIIFFTALMANGVMIFLIQTDLRLHTPMYFLLSHLSFIDMMYISTIVPKMLVDYLLGQRTISFVGCTAQHFLYLTLVGAEFFLLGLMAYDRYVAICNPLRYPVLMSRRVCWMIIAGSWFGGSLDGFLLTPITMSFPFCNSREINHFFCEAPAVLKLACADTALYETVMYVCCVLMLLIPFSVVIASYARILTTVHRMSSVEGRKKAFATCSSHMTVVTLFYGAAMYTYMLPHSYHKPAQDKVFSVFYTILTPMLNPLIYSLRNKDVTGALKRALGRFKGPQRVSGGVF	improved in responsiveness
consensus OR4E2: consensus olfactory receptor polypeptide (protein, OR4E2 consensus-c, consensus olfactory receptor polypeptide) MDSLNQTRVTEFVFLGLTDNWVLEILFFMAFSAIYVLTLLGNILIIVTIVFTPRLHTPMYFFLSNLSFIDICHSSVTVPKMLEGLLLERKTISFDNCIAQLFFLHLFACAEIFLLTIMAYDRYVAICTPLHYPNVMNMRVCVQLVFALWLGGTVHSLVQTFLTIRLPYCGPNIIDSYFCDVPPVIKLACTDTYLTGMLIVSNSGTISLTCFLALVTSYTVILVSLRKQSAEGRRKALSTCSAHFMVVALFFGPCIFIYTRPDTSFSIDKVVSVFYTVVTPLLNPLIYTLRNEEVKSAMKQLRQRQVFFTKSY	improved in responsiveness
consensus OR4K17: consensus olfactory receptor polypeptide (protein, OR4K17 consensus-c, consensus olfactory receptor polypeptide) MESMELLNQSQVSEFILLGLTSSQDIQFLLFALFSVIYVVTVLGNLLIVVTVFNTPNLNTPMYFLLGNLSFVDMTLASFATPKMILNLVKKQKTISFAGCFTQIFLLHLLGGVEMVLLVSMAYDRYVAICKPLHYMTIMNKKVCVLLVVTSWLLGLLHSGLQIPFVVNLPFCGPNVVDSIFCDLPLVTKLACIDTYFVQIVIVANSGMISLSCFIILLISYSLILITIRNHSSTGQSKARSTLTAHITVVILFFGPCIFIYIWPFSNHSVDKFLAVFYTIITPILNPIIYTLRNKEMKTAMKKLWRAFVNSREDT	improved in responsiveness

Biological target: T1, OR2T11
Experiment: not given
Settings: Block E et al., Nat. Prod. Rep. 2017; cited from earlier work

Molecule	response of OR2T11
CCCCS [1-butanethiol]	responds
CCCS [1-propanethiol]	responds
CCC(C)S (stereo not drawn) [2-butanethiol]	responds
CC(C)CS [2-methyl-1-propanethiol]	responds
CC(C)(C)S [2-methyl-2-propanethiol]	responds
CCCC(C)S (stereo not drawn) [2-pentanethiol]	responds
CC(C)S [2-propanethiol]	responds
CC(C)C(C)S (stereo not drawn) [3-methyl-2-butanethiol]	responds
SC1CCCC1 [cyclopentanethiol]	responds
CCS [ethanethiol]	responds
